Laboratory results taken from PubChem BioAssay AID270 (DTP/NCI, 2004).
“And” between values parts separate entries of the source, which are not always exact repeats. Equal entries are not always repeated. Inconclusive results are not listed.

Tested on: BDF1 mice, s.c. Lewis lung carcinoma, T/C %
Assay: NCI In Vivo Anticancer Drug Screen. Data for tumor model Lewis Lung Carcinoma (subcutaneous) in B6D2F1 (BDF1) mice
Protocol: The antitumor activity of compounds was measured in mice bearing transplantable tumors. Survival or tumor size were measured and the results are expressed as the measurement made in the treated group (T) divided by the measurement made in the vehicle treated control group (C). The tumor model used in this assay is Lewis Lung Carcinoma (subcutaneous) in B6D2F1 (BDF1) mice

[1] = endpoint: median survival time, dose: 6.25 mg/kg/injection, schedule: Q01DX009 (ip), vehicle: Klucel (hydroxypropylcellulose) (HPC), higher = longer survival
[2] = endpoint: median survival time, dose: 12.5 mg/kg/injection, schedule: Q01DX009 (ip), vehicle: Klucel (hydroxypropylcellulose) (HPC), higher = longer survival
[3] = endpoint: median survival time, dose: 25.0 mg/kg/injection, schedule: Q01DX009 (ip), vehicle: Klucel (hydroxypropylcellulose) (HPC), higher = longer survival
[4] = endpoint: mean tumor weight, dose: 12.5 mg/kg/injection, schedule: Q01DX011 (ip), vehicle: saline, higher = larger tumour
[5] = endpoint: mean tumor weight, dose: 25.0 mg/kg/injection, schedule: Q01DX011 (ip), vehicle: saline, higher = larger tumour

## C=C[C@]1(C)C=C2CC[C@@H]3[C@](C)(CCC[C@@]3(C)C(=O)O)[C@H]2CC1
endpoint: mean tumor weight, dose: 7.8 mg/kg/injection, schedule: Q01DX011 (ip), vehicle: saline, higher = larger tumour
  T/C: 73 % of control
endpoint: mean tumor weight, dose: 15.6 mg/kg/injection, schedule: Q01DX011 (ip), vehicle: saline, higher = larger tumour
  T/C: 55 % of control
endpoint: mean tumor weight, dose: 31.3 mg/kg/injection, schedule: Q01DX011 (ip), vehicle: saline, higher = larger tumour
  T/C: 43 % of control
endpoint: mean tumor weight, dose: 62.5 mg/kg/injection, schedule: Q01DX011 (ip), vehicle: saline, higher = larger tumour
  T/C: 98 % of control and 102 % of control
endpoint: mean tumor weight, dose: 125.0 mg/kg/injection, schedule: Q01DX011 (ip), vehicle: saline, higher = larger tumour
  T/C: 102 % of control
endpoint: mean tumor weight, dose: 250.0 mg/kg/injection, schedule: Q01DX011 (ip), vehicle: saline, higher = larger tumour
  T/C: 82 % of control

## COC(=O)Nc1nc2ccc(C(=O)c3ccccc3)cc2[nH]1
endpoint: median survival time, dose: 2.0 mg/kg/injection, schedule: Q04DX003 (ip), vehicle: saline with Tween-80, higher = longer survival
  T/C: 89 % of control
endpoint: median survival time, dose: 4.0 mg/kg/injection, schedule: Q04DX003 (ip), vehicle: saline with Tween-80, higher = longer survival
  T/C: 95 % of control
endpoint: median survival time, dose: 8.0 mg/kg/injection, schedule: Q04DX003 (ip), vehicle: saline with Tween-80, higher = longer survival
  T/C: 98 % of control
endpoint: median survival time, dose: 32.0 mg/kg/injection, schedule: Q04DX003 (ip), vehicle: saline with Tween-80, higher = longer survival
  T/C: 95 % of control
endpoint: median survival time, dose: 64.0 mg/kg/injection, schedule: Q04DX003 (ip), vehicle: saline with Tween-80, higher = longer survival
  T/C: 102 % of control

## C=C1C(=O)O[C@@H]2/C=C(/C)[C@@]3(O)C=C[C@](C)(C[C@@H](OC(=O)/C(=C\C)COC(C)=O)[C@@H]12)O3
endpoint: median survival time, dose: 0.03 mg/kg/injection, schedule: Q01DX009 (ip), vehicle: carboxymethylcellulose (CMC), higher = longer survival
  T/C: 100 % of control
endpoint: median survival time, dose: 0.06 mg/kg/injection, schedule: Q01DX009 (ip), vehicle: carboxymethylcellulose (CMC), higher = longer survival
  T/C: 94 % of control
endpoint: median survival time, dose: 0.12 mg/kg/injection, schedule: Q01DX009 (ip), vehicle: carboxymethylcellulose (CMC), higher = longer survival
  T/C: 113 % of control
endpoint: median survival time, dose: 0.25 mg/kg/injection, schedule: Q01DX009 (ip), vehicle: carboxymethylcellulose (CMC), higher = longer survival
  T/C: 87 % of control
endpoint: median survival time, dose: 0.5 mg/kg/injection, schedule: Q01DX009 (ip), vehicle: carboxymethylcellulose (CMC), higher = longer survival
  T/C: 100 % of control

## C[C@@H]1CCC[C@@H](NC(=O)N(CCCl)N=O)C1
endpoint: median survival time, dose: 4.68 mg/kg/injection, schedule: Q01DX009 (ip), vehicle: Klucel (hydroxypropylcellulose) (HPC), higher = longer survival
  T/C: 97 % of control
endpoint: median survival time, dose: 9.37 mg/kg/injection, schedule: Q01DX009 (ip), vehicle: Klucel (hydroxypropylcellulose) (HPC), higher = longer survival
  T/C: 98 % of control
endpoint: median survival time, dose: 18.75 mg/kg/injection, schedule: Q01DX009 (ip), vehicle: Klucel (hydroxypropylcellulose) (HPC), higher = longer survival
  T/C: 108 % of control

## CCc1ccccc1N1CCN(C(=O)c2cc(OC)c(OC)c(OC)c2)CC1
endpoint: mean tumor weight, dose: 25.0 mg/kg/injection, schedule: Q01DX011 (ip), vehicle: carboxymethylcellulose (CMC), higher = larger tumour
  T/C: 46 % of control and 48 % of control

## CCOC(=O)C1C(=O)C(CN(CCCl)CCCl)C(=O)C(C(=O)OCC)C1c1ccc(O)cc1 (configuration not stated)
endpoint: median survival time, dose: 3.12 mg/kg/injection, schedule: Q01DX009 (ip), vehicle: Klucel (hydroxypropylcellulose) (HPC), higher = longer survival
  T/C: 94 % of control
[1]
  T/C: 98 % of control
[2]
  T/C: 100 % of control
[3]
  T/C: 94 % of control

## COc1cc(N(CCCl)CCCl)ccc1NC(=O)c1ccccc1
endpoint: mean tumor weight, dose: 12.5 mg/kg/injection, schedule: Q01DX011 (ip), vehicle: Klucel (hydroxypropylcellulose) (HPC), higher = larger tumour
  T/C: 68 % of control
endpoint: mean tumor weight, dose: 25.0 mg/kg/injection, schedule: Q01DX011 (ip), vehicle: Klucel (hydroxypropylcellulose) (HPC), higher = larger tumour
  T/C: 48 % of control

## CS(C)=O
endpoint: mean tumor weight, dose: 250.0 mg/kg/injection, schedule: Q01DX011 (ip), vehicle: carboxymethylcellulose (CMC), higher = larger tumour
  T/C: 68 % of control
endpoint: mean tumor weight, dose: 500.0 mg/kg/injection, schedule: Q01DX011 (ip), vehicle: carboxymethylcellulose (CMC), higher = larger tumour
  T/C: 117 % of control
endpoint: mean tumor weight, dose: 1000.0 mg/kg/injection, schedule: Q01DX011 (ip), vehicle: carboxymethylcellulose (CMC), higher = larger tumour
  T/C: 86 % of control
endpoint: mean tumor weight, dose: 2000.0 mg/kg/injection, schedule: Q01DX011 (ip), vehicle: carboxymethylcellulose (CMC), higher = larger tumour
  T/C: 57 % of control
endpoint: median survival time, dose: 3.0 grams/kg/injection, schedule: Q01DX009 (ip), vehicle: saline, higher = longer survival
  T/C: 101 % of control
endpoint: median survival time, dose: 6.0 grams/kg/injection, schedule: Q01DX009 (ip), vehicle: saline, higher = longer survival
  T/C: 93 % of control

## NCC(O)c1ccc(O)c(O)c1 (configuration not stated)
endpoint: mean tumor weight, dose: 2.5 mg/kg/injection, schedule: Q01DX011 (ip), vehicle: saline, higher = larger tumour
  T/C: 105 % of control
endpoint: mean tumor weight, dose: 5.0 mg/kg/injection, schedule: Q01DX011 (ip), vehicle: saline, higher = larger tumour
  T/C: 161 % of control
endpoint: mean tumor weight, dose: 10.0 mg/kg/injection, schedule: Q01DX011 (ip), vehicle: saline, higher = larger tumour
  T/C: 63 % of control

## C=C1c2[nH]c3ccccc3c2CN2CCC1/C(=C/C)C2 (configuration not stated)
endpoint: mean tumor weight, dose: 0.5 mg/kg/injection, schedule: Q01DX011 (ip), vehicle: saline, higher = larger tumour
  T/C: 104 % of control
endpoint: mean tumor weight, dose: 1.0 mg/kg/injection, schedule: Q01DX011 (ip), vehicle: saline, higher = larger tumour
  T/C: 74 % of control
endpoint: mean tumor weight, dose: 2.0 mg/kg/injection, schedule: Q01DX011 (ip), vehicle: saline, higher = larger tumour
  T/C: 102 % of control

## CCc1c(CC(=O)O)c2cc(C)ccc2n1Cc1ccc(Cl)cc1
[4]
  T/C: 72 % of control
[5]
  T/C: 104 % of control
endpoint: mean tumor weight, dose: 50.0 mg/kg/injection, schedule: Q01DX011 (ip), vehicle: saline, higher = larger tumour
  T/C: 70 % of control

## c1ccc(CSc2ncnc3nc[nH]c23)nc1
endpoint: mean tumor weight, dose: 25.0 mg/kg/injection, schedule: Q01DX011 (ip), vehicle: other, higher = larger tumour
  T/C: 59 % of control
endpoint: mean tumor weight, dose: 50.0 mg/kg/injection, schedule: Q01DX011 (ip), vehicle: other, higher = larger tumour
  T/C: 109 % of control
endpoint: mean tumor weight, dose: 100.0 mg/kg/injection, schedule: Q01DX011 (ip), vehicle: other, higher = larger tumour
  T/C: 63 % of control

## Nc1ccc(N=Nc2ccccc2)c(N)c1
endpoint: median survival time, dose: 2.25 mg/kg/injection, schedule: Q01DX009 (ip), vehicle: Klucel (hydroxypropylcellulose) (HPC), higher = longer survival
  T/C: 109 % of control
endpoint: median survival time, dose: 4.5 mg/kg/injection, schedule: Q01DX009 (ip), vehicle: Klucel (hydroxypropylcellulose) (HPC), higher = longer survival
  T/C: 102 % of control
endpoint: median survival time, dose: 9.0 mg/kg/injection, schedule: Q01DX009 (ip), vehicle: Klucel (hydroxypropylcellulose) (HPC), higher = longer survival
  T/C: 106 % of control
endpoint: median survival time, dose: 18.0 mg/kg/injection, schedule: Q01DX009 (ip), vehicle: Klucel (hydroxypropylcellulose) (HPC), higher = longer survival
  T/C: 101 % of control
endpoint: median survival time, dose: 75.0 mg/kg/injection, schedule: Q01DX009 (ip), vehicle: Klucel (hydroxypropylcellulose) (HPC), higher = longer survival
  T/C: 99 % of control
endpoint: median survival time, dose: 200.0 mg/kg/injection, schedule: Q01DX009 (ip), vehicle: Klucel (hydroxypropylcellulose) (HPC), higher = longer survival
  T/C: 97 % of control

## CCCNc1ncnc2c1cnn2C
endpoint: mean tumor weight, dose: 3.12 mg/kg/injection, schedule: Q01DX011 (ip), vehicle: saline, higher = larger tumour
  T/C: 95 % of control
endpoint: mean tumor weight, dose: 6.25 mg/kg/injection, schedule: Q01DX011 (ip), vehicle: saline, higher = larger tumour
  T/C: 89 % of control
[4]
  T/C: 65 % of control
[5]
  T/C: 28 % of control

## CCC1=C(c2cc(Cl)c3ccccc3c2OCC(=O)O)OC(CC)(C(=O)c2cc(Cl)c3ccccc3c2OCC(=O)O)CC1 (configuration not stated)
endpoint: mean tumor weight, dose: 2.3 mg/kg/injection, schedule: Q01DX011 (ip), vehicle: carboxymethylcellulose (CMC), higher = larger tumour
  T/C: 82 % of control
endpoint: mean tumor weight, dose: 3.5 mg/kg/injection, schedule: Q01DX011 (ip), vehicle: carboxymethylcellulose (CMC), higher = larger tumour
  T/C: 76 % of control

## c1ccc2cc3c(cc2c1)Cn1c-3nc2ccccc21
endpoint: mean tumor weight, dose: 50.0 mg/kg/injection, schedule: Q01DX011 (ip), vehicle: carboxymethylcellulose (CMC), higher = larger tumour
  T/C: 64 % of control
endpoint: mean tumor weight, dose: 55.0 mg/kg/injection, schedule: Q01DX011 (ip), vehicle: carboxymethylcellulose (CMC), higher = larger tumour
  T/C: 33 % of control and 48 % of control
endpoint: mean tumor weight, dose: 80.0 mg/kg/injection, schedule: Q01DX011 (ip), vehicle: carboxymethylcellulose (CMC), higher = larger tumour
  T/C: 52 % of control
endpoint: mean tumor weight, dose: 100.0 mg/kg/injection, schedule: Q01DX011 (ip), vehicle: carboxymethylcellulose (CMC), higher = larger tumour
  T/C: 23 % of control
endpoint: mean tumor weight, dose: 120.0 mg/kg/injection, schedule: Q01DX011 (ip), vehicle: carboxymethylcellulose (CMC), higher = larger tumour
  T/C: 26 % of control
endpoint: mean tumor weight, dose: 180.0 mg/kg/injection, schedule: Q01DX011 (ip), vehicle: carboxymethylcellulose (CMC), higher = larger tumour
  T/C: 34 % of control
endpoint: mean tumor weight, dose: 200.0 mg/kg/injection, schedule: Q01DX011 (ip), vehicle: carboxymethylcellulose (CMC), higher = larger tumour
  T/C: 37 % of control
endpoint: mean tumor weight, dose: 400.0 mg/kg/injection, schedule: Q01DX011 (ip), vehicle: carboxymethylcellulose (CMC), higher = larger tumour
  T/C: 38 % of control

## Nc1nc(-c2ccccc2N=NN2CCCC2)nc2ccccc12
[1]
  T/C: 105 % of control
[2]
  T/C: 97 % of control
[3]
  T/C: 103 % of control

## O=P(c1ccccc1)(N1CC1)N1CC1
endpoint: mean tumor weight, dose: 11.0 mg/kg/injection, schedule: Q01DX011 (ip), vehicle: saline, higher = larger tumour
  T/C: 65 % of control
endpoint: mean tumor weight, dose: 17.0 mg/kg/injection, schedule: Q01DX011 (ip), vehicle: saline, higher = larger tumour
  T/C: 93 % of control
[5]
  T/C: 69 % of control
endpoint: mean tumor weight, dose: 38.0 mg/kg/injection, schedule: Q01DX011 (ip), vehicle: saline, higher = larger tumour
  T/C: 38 % of control
endpoint: mean tumor weight, dose: 76.0 mg/kg/injection, schedule: Q01DX011 (ip), vehicle: saline, higher = larger tumour
  T/C: 52 % of control
